Residual activity data for 3 compounds are collected here from ChEMBL document CHEMBL5649166, “RIP3 induces apoptosis independent of pronecrotic kinase activity” (Mol Cell, 2014).

Each structure is given as a SMILES string.

Assay [1] addresses T1, Homeodomain-interacting protein kinase 4 (Homo sapiens) (UniProt Q8NE63).
T1 sequence (whole entry): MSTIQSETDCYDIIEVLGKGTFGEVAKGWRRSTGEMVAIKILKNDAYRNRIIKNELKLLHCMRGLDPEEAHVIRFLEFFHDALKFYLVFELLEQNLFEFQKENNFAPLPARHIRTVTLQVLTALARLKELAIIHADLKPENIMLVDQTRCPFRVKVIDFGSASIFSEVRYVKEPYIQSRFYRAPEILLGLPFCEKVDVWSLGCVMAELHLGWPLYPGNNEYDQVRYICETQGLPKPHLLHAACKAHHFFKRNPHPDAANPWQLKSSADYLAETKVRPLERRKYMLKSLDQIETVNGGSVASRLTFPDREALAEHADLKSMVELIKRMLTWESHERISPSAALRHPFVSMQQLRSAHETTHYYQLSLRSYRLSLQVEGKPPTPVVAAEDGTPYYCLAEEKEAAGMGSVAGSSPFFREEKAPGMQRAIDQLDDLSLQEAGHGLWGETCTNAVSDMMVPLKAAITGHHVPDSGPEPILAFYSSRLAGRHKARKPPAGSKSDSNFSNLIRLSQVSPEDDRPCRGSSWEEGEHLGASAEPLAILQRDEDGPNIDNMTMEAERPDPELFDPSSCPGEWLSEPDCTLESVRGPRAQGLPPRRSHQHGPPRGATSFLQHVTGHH
As to the kind of experiment: Inhibition of human HIPK4 using myelin basic protein as substrate at 1 uM in presence of 32P-ATP by Hotspot assay relative to control; values are per cent of control.

The target in assay [2] is T2, Mitogen-activated protein kinase 12 (Homo sapiens) (UniProt P53778).
T2 sequence (whole entry): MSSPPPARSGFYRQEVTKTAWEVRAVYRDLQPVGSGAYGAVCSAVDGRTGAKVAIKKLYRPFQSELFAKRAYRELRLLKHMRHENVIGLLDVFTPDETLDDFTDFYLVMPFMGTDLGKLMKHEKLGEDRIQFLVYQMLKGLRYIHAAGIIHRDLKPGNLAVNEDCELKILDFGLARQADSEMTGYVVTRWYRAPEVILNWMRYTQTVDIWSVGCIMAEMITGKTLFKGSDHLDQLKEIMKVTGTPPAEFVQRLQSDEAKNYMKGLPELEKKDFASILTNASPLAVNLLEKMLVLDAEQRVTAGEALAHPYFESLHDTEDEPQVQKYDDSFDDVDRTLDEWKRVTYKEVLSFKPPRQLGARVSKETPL
The assay is described as follows: Inhibition of human P38g using myelin basic protein as substrate at 1 uM in presence of 32P-ATP by Hotspot assay relative to control; values are per cent of control.

Assay [3] deals with T3, Serine/threonine-protein kinase haspin (Homo sapiens) (UniProt Q8TF76).
T3 sequence (whole entry): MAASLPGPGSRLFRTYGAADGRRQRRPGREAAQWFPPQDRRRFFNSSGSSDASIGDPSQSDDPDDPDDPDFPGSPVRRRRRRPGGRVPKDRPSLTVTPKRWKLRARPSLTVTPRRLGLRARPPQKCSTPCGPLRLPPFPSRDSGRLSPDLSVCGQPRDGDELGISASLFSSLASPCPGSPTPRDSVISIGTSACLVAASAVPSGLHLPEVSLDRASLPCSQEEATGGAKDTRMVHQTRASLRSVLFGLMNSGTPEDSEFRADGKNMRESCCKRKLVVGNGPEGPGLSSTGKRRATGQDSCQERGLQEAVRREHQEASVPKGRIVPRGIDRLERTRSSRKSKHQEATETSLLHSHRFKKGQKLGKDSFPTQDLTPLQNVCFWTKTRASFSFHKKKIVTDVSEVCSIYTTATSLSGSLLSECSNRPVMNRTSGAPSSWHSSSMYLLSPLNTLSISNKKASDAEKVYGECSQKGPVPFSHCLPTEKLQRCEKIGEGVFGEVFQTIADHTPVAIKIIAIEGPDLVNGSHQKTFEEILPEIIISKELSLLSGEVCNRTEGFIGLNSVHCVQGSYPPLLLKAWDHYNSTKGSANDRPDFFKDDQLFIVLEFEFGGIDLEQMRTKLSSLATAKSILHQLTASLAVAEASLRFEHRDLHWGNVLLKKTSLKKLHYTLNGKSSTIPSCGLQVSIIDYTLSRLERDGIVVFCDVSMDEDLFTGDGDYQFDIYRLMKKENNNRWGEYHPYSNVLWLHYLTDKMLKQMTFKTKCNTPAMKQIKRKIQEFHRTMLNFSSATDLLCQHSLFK
The assay is described as follows: Inhibition of human Haspin using histone H3 as substrate at 1 uM in presence of 32P-ATP by Hotspot assay relative to control; values are per cent of control.

Assay [4] deals with G protein-coupled receptor kinase 6 (Homo sapiens) (UniProt P43250). The assay is described as follows: Inhibition of human GRK6 using casein as substrate at 1 uM in presence of 32P-ATP by Hotspot assay relative to control; values are per cent of control.
The target of assay [5] is T4, Serine/threonine-protein kinase Nek11 (Homo sapiens) (UniProt Q8NG66).
T4 sequence (whole entry): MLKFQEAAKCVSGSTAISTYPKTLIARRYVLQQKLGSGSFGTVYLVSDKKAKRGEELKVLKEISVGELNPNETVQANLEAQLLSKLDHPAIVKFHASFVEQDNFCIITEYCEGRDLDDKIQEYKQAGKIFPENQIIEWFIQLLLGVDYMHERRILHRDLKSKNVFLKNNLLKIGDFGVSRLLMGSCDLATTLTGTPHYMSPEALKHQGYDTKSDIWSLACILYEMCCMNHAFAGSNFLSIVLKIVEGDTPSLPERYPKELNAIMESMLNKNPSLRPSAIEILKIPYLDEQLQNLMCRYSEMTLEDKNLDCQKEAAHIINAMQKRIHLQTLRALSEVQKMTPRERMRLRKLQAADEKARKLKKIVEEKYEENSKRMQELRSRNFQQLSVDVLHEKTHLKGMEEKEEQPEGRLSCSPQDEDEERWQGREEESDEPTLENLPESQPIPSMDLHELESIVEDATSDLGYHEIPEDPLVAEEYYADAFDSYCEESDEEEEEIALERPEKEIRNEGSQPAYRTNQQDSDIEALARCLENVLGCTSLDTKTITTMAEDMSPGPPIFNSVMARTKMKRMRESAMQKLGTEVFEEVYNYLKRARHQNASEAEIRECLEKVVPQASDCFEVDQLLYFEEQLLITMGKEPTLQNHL
As to the kind of experiment: Inhibition of human NEK11 using myelin basic protein as substrate at 1 uM in presence of 32P-ATP by Hotspot assay relative to control; values are per cent of control.

The target in assay [6] is Ribosomal protein S6 kinase beta-1 (Homo sapiens) (UniProt P23443). As to the kind of experiment: Inhibition of human p70S6K/RPS6KB1 using KKRNRTLTK as substrate at 1 uM in presence of 32P-ATP by Hotspot assay relative to control; values are per cent of control.
Sequence of Ribosomal protein S6 kinase beta-1 (Homo sapiens) (P23443 whole entry, looked up): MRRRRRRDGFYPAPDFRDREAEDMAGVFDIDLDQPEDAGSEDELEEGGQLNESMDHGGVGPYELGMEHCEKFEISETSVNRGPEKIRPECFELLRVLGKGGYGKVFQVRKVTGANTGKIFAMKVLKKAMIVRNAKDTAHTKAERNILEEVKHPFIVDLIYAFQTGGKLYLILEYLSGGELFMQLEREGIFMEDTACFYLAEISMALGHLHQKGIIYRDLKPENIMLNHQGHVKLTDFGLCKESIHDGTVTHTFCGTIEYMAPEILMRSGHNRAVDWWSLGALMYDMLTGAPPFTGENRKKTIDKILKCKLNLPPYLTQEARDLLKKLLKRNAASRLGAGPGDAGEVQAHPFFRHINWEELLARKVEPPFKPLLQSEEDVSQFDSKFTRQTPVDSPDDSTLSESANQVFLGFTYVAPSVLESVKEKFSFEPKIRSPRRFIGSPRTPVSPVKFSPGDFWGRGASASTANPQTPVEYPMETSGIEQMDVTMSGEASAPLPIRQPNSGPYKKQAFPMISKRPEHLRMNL

Sequence of G protein-coupled receptor kinase 6 (Homo sapiens) (P43250 whole entry, looked up): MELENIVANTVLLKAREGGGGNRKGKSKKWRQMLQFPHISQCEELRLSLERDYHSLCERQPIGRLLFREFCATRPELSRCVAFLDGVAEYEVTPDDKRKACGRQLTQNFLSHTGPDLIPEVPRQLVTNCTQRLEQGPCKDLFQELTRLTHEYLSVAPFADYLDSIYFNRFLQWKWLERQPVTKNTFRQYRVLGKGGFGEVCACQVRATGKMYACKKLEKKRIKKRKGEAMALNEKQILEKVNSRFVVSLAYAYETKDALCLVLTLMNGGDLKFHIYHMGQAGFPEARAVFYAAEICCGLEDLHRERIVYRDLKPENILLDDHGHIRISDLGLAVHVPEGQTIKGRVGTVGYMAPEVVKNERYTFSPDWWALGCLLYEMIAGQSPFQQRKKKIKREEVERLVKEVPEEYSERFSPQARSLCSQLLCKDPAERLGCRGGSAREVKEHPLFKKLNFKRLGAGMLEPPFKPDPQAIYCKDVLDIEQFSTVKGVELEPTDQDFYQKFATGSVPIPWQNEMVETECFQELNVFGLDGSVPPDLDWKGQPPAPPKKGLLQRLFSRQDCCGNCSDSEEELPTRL

Regarding `CNC(=O)c1ccc2c(c1)ncn2-c1ccc(CC(=O)OC(C)(C)C)cc1`, the residual activity in assay [1] was 107%; in assay [2], 95.7%; in assay [3] it was 98.1%; in assay [4], 96.4%; in assay [5], 102%; in assay [6] it was 99.1%.
As for `Cc1cc(-c2cnc(N)c3c(-c4ccc5scnc5c4)csc23)n(C)n1`, the residual activity worked out at 106% in assay [1]; 105% in assay [2]; 95.5% in assay [3]; 91.9% in assay [4]; 97.3% in assay [5]; 93.6% in assay [6].
Turning to `CC(C)S(=O)(=O)c1ccc2nccc(Nc3ccc4scnc4c3)c2c1`, the residual activity was determined as 93.7% in assay [1]; 98.5% in assay [2]; 86.2% in assay [3]; 101% in assay [4]; 89.5% in assay [5]; 108% in assay [6].
